In patent EP4813990A1, “COMPOUND FOR TREATING CANCER” (INNOLAKE BIOPHARMA (HANGZHOU) CO., LTD., priority 2023, dated 2025):
Where “and” joins values, the source holds several entries; their conditions need not be identical. Equal entries are not always repeated.

What was measured:
[1] = system: MC38 mouse colon cancer xenograft; assay: MC38 mouse colon cancer xenograft model, single agent and combination with anti-CTLA-4 antibody; format: in vivo, C57BL/6 mice; conditions: for Tumor Volume (mm^3) (Day 9): Day 9 after inoculation; for Tumor Volume (mm^3) (Day 9) / Tumor Volume (mm^3) / Tumor Volume (mm^3) (Day 15) / Tumor Weight / Tumor Volume (mm^3) (Day 12): Mean ± SEM; for Tumor Volume (mm^3) (Day 9) / Tumor Volume (mm^3) / Tumor Volume (mm^3) (Day 15) / Number of Animals with Tumor Volume > 250mm^3 / T/C (%) (Day 21) / Tumor Volume (mm^3) (Day 12) / TGI (%) (Day 21): n=8; for Tumor Volume (mm^3) (Day 15): Day 15 after inoculation; for Number of Animals with Tumor Volume > 250mm^3 / T/C (%) (Day 21) / TGI (%) (Day 21): Day 21; for Tumor Weight: end of experiment (D23); for Tumor Volume (mm^3) (Day 12): head prints Day 12; for TGI (%) (Day 21): tumor volume based; for TGITW (%): tumor weight based
Experimental: A total of 6 groups were set up in the experiment: vehicle control group, ILB-2109 low-dose and high-dose single-agent groups, Anti-CTLA-4 antibody single-agent group, and two dose groups of ILB-2109 and Anti-CTLA-4 in combination. Table 1. Experimental Administration Dosage and Grouping
Anti-CTLA-4 antibody was aseptically diluted to 0.5 mg/mL with DPBS and prepared immediately before administration.
ILB-2109 was formulated to 10 mg/mL with vehicle, 1% tween80 + 9% PEG400 + 90% ddwater. Specific preparation method: Prepare Vehicle 1 (10 mL Tween80, 90 mL PEG400, 900 mL ddwater), weigh 1120 mg of ILB-2109 and add into 112 mL of Vehicle 1, grind to basically uniform, then ultrasonicate for about 2-3 minutes to obtain a homogeneous suspension. An appropriate amount of the solution was diluted to 5 mg/mL with Vehicle 1 (1% Tween80 + 9% PEG400 + 90% ddwater) at a ratio of 1:1. The prepared solution was aliquoted into 5 mL EP tubes with 4 mL per tube and stored at 4°C. Prepared once a week.
48 female C57BL/6 mice were inoculated subaxillarily with 0.1 mL DPBS containing 2×10^5 MC38 cells. On the day of inoculation, mice were randomly divided into vehicle control group, ILB-2109 low-dose group and ILB-2109 high-dose group according to body weight, with 16 animals in each group. The day of inoculation was defined as D1. On D9 after inoculation, the average tumor volume of the vehicle control group reached about 64 mm^3. According to animal tumor volume and body weight, the original vehicle control group was divided into vehicle control group and Anti-CTLA-4 antibody single-agent group; the original ILB-2109 low-dose group was divided into ILB-2109 low-dose single-agent group and the combination group of low-dose ILB-2109 and anti-CTLA-4 antibody; the original ILB-2109 high-dose group was divided into ILB-2109 high-dose single-agent group and the combination group of high-dose ILB-2109 and Anti-CTLA-4 antibody. Administration was carried out for each group on the day of regrouping according to the set dosage.
Tumor volume was measured and body weight was weighed 3 times a week.
All animals were euthanized on D23 after inoculation, and tumor samples were collected and weighed.
Tumor volume was measured 3 times a week, and tumor growth inhibition TGITV (%) was calculated. The calculation formula of Tumor Volume (TV) is: TV = 1/2 × a × b^2 [formula] where a and b represent the major diameter and minor diameter of the tumor mass respectively. [formula]
Tumor weight of animals was measured during sample collection. The tumor growth inhibition was calculated according to the following formula: Tumor Growth Inhibition based on Tumor Weight TGITW(%) = (TWc−TWt)/TWc × 100% [formula] where TWt is the mean tumor weight of the treatment group, and TWc is the mean tumor weight of the vehicle control group.
All data were expressed as Mean ± SEM.
In this experiment, data on D21 after inoculation were used for statistical analysis by PRISM software. T test was used for comparison between two groups, and one-way ANOVA was used for comparison among three or more groups.

[2] = Single-dose toxicity study in cynomolgus monkeys; conditions: cynomolgus monkey, in vivo, po, single intragastric administration within 24 h, observed 14 days, read-out: maximum tolerated dose (MTD)
Experimental: In accordance with the relevant requirements of the Good Laboratory Practice for Non-clinical Drug Studies issued by the National Medical Products Administration of the People's Republic of China, and following the test protocol and revisions, the safety pharmacology test, single-dose toxicity, genetic toxicity, etc. of ILB-2109 were explored.
Cynomolgus monkeys were given single intragastric administration of 0 (vehicle), 250, 500 and 1000 mg/kg ILB-2109 and observed continuously for 14 days after single administration. […] Within 30 min ~ 4 h after administration on the day of administration, mild vomiting (a small amount of food-like vomit) occurred in medium and high-dose groups. No abnormalities were found in body weight, food consumption, body temperature, respiration, electrocardiogram, blood routine, ophthalmic examination, clinical examination, bone marrow and gross anatomy. Under the test conditions, the maximum tolerated dose (MTD) of cynomolgus monkeys given single intragastric administration of ILB-2109 within 24 h was 1000 mg/kg. The test substance had effects on digestive system (gastrointestinal function, liver function).

[3] = Plasma protein binding; format: in vitro ADME; conditions: one range given for CD-1 mice, Sprague-Dawley rats, Beagle dogs and cynomolgus monkeys
[4] = Plasma protein binding; format: in vitro ADME; conditions: one range given for CD-1 mice, Sprague-Dawley rats, Beagle dogs and cynomolgus monkeys; remark: listed apart in the source
[5] = Plasma protein binding; format: in vitro ADME; conditions: human plasma
[6] = target: A1 receptor (Homo sapiens, UniProt P30542); assay: Adenosine receptor selectivity, A2aR compared with A1; format: binding
Text: Meanwhile, ILB-2109 had high selectivity for A2aR (compared with A1, A2b and A3 receptors, the selectivity was 18.9 times, 40.7 times and 3424.7 times respectively).

[7] = system: CYP3A, CYP2B6, CYP2C8, CYP2C9, CYP1A2, CYP2C19 and CYP2D6; assay: Metabolic enzyme phenotyping for production of metabolite M4; format: in vitro ADME
[8] = Excretion of total radioactivity in bile duct cannulated (BDC) rats; format: in vivo
[9] = Plasma protein binding; format: in vitro ADME; conditions: one range given for CD-1 mice, Sprague-Dawley rats, Beagle dogs and cynomolgus monkeys; remark: listed apart in the source
[10] = ILB-2109 100 mg/kg gavage twice a day
[11] = ILB-2109 50 mg/kg gavage twice a day
[12] = BDC rats, 0-72 hours after single oral administration

Sequence of A1 receptor (P30542 whole entry): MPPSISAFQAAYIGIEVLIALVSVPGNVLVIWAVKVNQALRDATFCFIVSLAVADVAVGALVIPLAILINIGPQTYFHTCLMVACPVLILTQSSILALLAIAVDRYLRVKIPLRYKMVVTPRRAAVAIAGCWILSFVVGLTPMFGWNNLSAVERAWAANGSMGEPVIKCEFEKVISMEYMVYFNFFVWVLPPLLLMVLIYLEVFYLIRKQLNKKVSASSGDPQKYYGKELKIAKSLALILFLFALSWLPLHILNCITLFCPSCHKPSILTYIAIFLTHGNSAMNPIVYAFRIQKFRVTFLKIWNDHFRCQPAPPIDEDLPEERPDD

Q: For `Cc1cc(-c2c(-c3ccccc3)nc(N)n3nc(CO)nc23)cc(C(F)(F)F)n1` [ILB-2109], which “Tumor Volume (mm^3) (Day 9)” value ([1]; ILB-2109 50 mg/kg gavage twice a day, 50 mg/kg) is on record?
A: 63±6 mm^3 and 63.65±6 mm^3

Q: What about the “Tumor Volume (mm^3) (Day 9)” value [1, 10] of the same compound?
A: 58±4 mm^3

Q: What about the “Tumor Volume (mm^3)” value ([1]; Day 11 after inoculation, ILB-2109 50 mg/kg gavage twice a day) of the same compound?
A: 115±13 mm^3

Q: And the “Tumor Volume (mm^3)” value ([1]; Day 11 after inoculation, ILB-2109 100 mg/kg gavage twice a day)?
A: 78±8 mm^3

Q: What about the “Tumor Volume (mm^3)” value ([1]; Day 13 after inoculation, ILB-2109 50 mg/kg gavage twice a day) of the same compound?
A: 143±20 mm^3

Q: And the “Tumor Volume (mm^3)” value ([1]; Day 13 after inoculation, ILB-2109 100 mg/kg gavage twice a day)?
A: 105±11 mm^3

Q: And the “Tumor Volume (mm^3) (Day 15)” value [1, 11]?
A: 225±34 mm^3

Q: And the “Tumor Volume (mm^3) (Day 15)” value ([1]; ILB-2109 100 mg/kg gavage twice a day, 100 mg/kg)?
A: 257±18 mm^3 and 157±18 mm^3

Q: What about the “Tumor Volume (mm^3)” value ([1]; Day 17 after inoculation, ILB-2109 50 mg/kg gavage twice a day) of the same compound?
A: 269±41 mm^3

Q: And the “Tumor Volume (mm^3)” value ([1]; Day 17 after inoculation, ILB-2109 100 mg/kg gavage twice a day)?
A: 207±25 mm^3

Q: What about the “Number of Animals with Tumor Volume > 250mm^3” value [1, 11] of the same compound?
A: 8/8

Q: And the “T/C (%) (Day 21)” value [1, 11]?
A: 70.61%

Q: What about the “Number of Animals with Tumor Volume > 250mm^3” value [1, 10] of the same compound?
A: 5/8

Q: And the “T/C (%) (Day 21)” value [1, 10]?
A: 52.76%

Q: What about the “Tumor Volume (mm^3)” value ([1]; Day 21 after inoculation, ILB-2109 50 mg/kg gavage twice a day) of the same compound?
A: 494±87 mm^3

Q: What about the “Tumor Volume (mm^3)” value ([1]; Day 21 after inoculation, ILB-2109 100 mg/kg gavage twice a day) of the same compound?
A: 369±54 mm^3

Q: And the “Tumor Weight” value [1, 11]?
A: 1.7030 ± 0.1419 g

Q: And the “Tumor Weight” value [1, 10]?
A: 0.6318 ± 0.1355 g

Q: What about the “Tumor Volume (mm^3) (Day 12)” value [1, 11] of the same compound?
A: 494±87 mm^3

Q: And the “Tumor Volume (mm^3) (Day 12)” value [1, 10]?
A: 369±54 mm^3

Q: And the “TGI (%) (Day 21)” value [1, 11]?
A: 29.39%

Q: What about the “TGI (%) (Day 21)” value [1, 10] of the same compound?
A: 47.24%

Q: What about the “TGITW (%)” value [1, 11] of the same compound?
A: 31%

Q: And the “TGITW (%)” value [1, 10]?
A: 38%

Q: What about the MTD at 14 days [2] of the same compound?
A: 1000 mg/kg

Q: And the “binding rate in plasma” value [3]?
A: 87.3%-95.0%

Q: What about the “binding rate in plasma” value [4] of the same compound?
A: 87.3%-95.0%

Q: And the “binding rate in plasma” value [5]?
A: 95.1-95.8%

Q: And the “selectivity for A2aR compared with A1 receptor” value [6]?
A: 18.9 times

Q: And the “role of CYP2B6, CYP2C8 and CYP2C9 in production of metabolite M4” value [7]?
A: may play a secondary role

Q: And the “role of other isoenzymes (CYP1A2, CYP2C19 and CYP2D6) in production of metabolite M4” value [7]?
A: little or no effect

Q: What about the “average of total radioactivity recovery” value [8, 12] of the same compound?
A: 93.63%

Q: And the “cage washing and cleaning fluid, share of the administered dose” value [8, 12]?
A: 0.85%

Q: And the “feces, share of the administered dose” value [8, 12]?
A: 14.45%

Q: And the “total biliary excretion, share of the administered dose” value [8, 12]?
A: 66.17%

Q: What about the “urine, share of the administered dose” value [8, 12] of the same compound?
A: 12.16%

Q: What about the oral absorption rate ([8]; from total radioactive excretion of bile and urine in BDC rats) of the same compound?
A: at least 78.33%

Q: And the “binding rate in plasma” value [9]?
A: 87.3%-95.0%
